In publication PMC12562379, “Facile Synthesis of N-vinylindoles via Knoevenagel Condensation: Molecular Features and Biological Activities” (International Journal of Molecular Sciences, 2025) one finds MFC, MIC and inhibition data, which are given here for one molecule.

The subject of assay [1] is C. albicans ATCC 10231. Kind of assay: Microbroth dilution assay. In kind it is cell-based, Candida albicans. The method, then: The minimum inhibitory concentration (MIC) and minimum bactericidal/fungicidal concentration (MBC/MFC) of the tested compounds were determined by the microbroth dilution technique using 96-well plates based on the methodology described in the EUCAST (European Committee on Antimicrobial Susceptibility Testing) standards. Reference and clinical strains of Gram-positive (Staphylococcus aureus ATCC 6538, Staphylococuccus aureus MRSA 6347) and Gram-negative (Escherichia coli ATCC 8739) bacteria, and yeast (Candida albicans ATCC 10231, Candida glabrata ATCC 2001) were used for the assay. The studies were carried out in the Mueller–Hinton (MH) broth for bacteria and RPMI 1640 broth + MOPS (Sigma-Aldrich, Poland) buffer in the case of yeast. The dry test samples were dissolved in DMSO (dimethyl sulfoxide), resulting in a final concentration of 15 mg/mL, and then diluted in a geometric progression. Ampicillin (Sigma-Aldrich, Poland) acted as a control sample (512 to 4 µg/mL) for bacteria and ketoconazole (128 to 1 µg/mL) (Sigma-Aldrich, Poland) acted as a control sample for yeast. The cultures of microorganisms were prepared by transferring cells from the stock cultures to tubes with the appropriate broth and incubated with agitation in an aerobic atmosphere for 18 ± 2 h at 35 ± 1 °C; next, they were diluted to achieve an optical density corresponding to 5 × 105 (bacteria) or 2 × 105 (yeast) colony-forming units per mL (cfu/mL). An appropriate media (96 µL), along with the tested compounds with a final concentration range of 300–3.1 µg/mL (4 µL) and next microbial suspension (100 µL) were added to each well. Plates with samples were incubated in adequate conditions described above and microbial growth was assessed. […] (>90%; ketoconazole) but 50% (for other compounds) inhibits visible growth of yeasts. Next, as a control of microbial viability, 100 µL of the samples from each well without growth was inoculated on the MH or RPMI agar plates and incubated for 18 ± 2 h at 35 ± 1 °C and finally, the CFU was counted. The MBC/MFC was determined as the minimum concentration of compounds required to kill 99.9% the organisms.

The target of assay [2] is T1, AGE2-BSA/sRAGE interaction (Homo sapiens, UniProt Q15109).
T1 construct: purchased Creative BioMart
T1 sequence (Q15109 23-342 limits assumed): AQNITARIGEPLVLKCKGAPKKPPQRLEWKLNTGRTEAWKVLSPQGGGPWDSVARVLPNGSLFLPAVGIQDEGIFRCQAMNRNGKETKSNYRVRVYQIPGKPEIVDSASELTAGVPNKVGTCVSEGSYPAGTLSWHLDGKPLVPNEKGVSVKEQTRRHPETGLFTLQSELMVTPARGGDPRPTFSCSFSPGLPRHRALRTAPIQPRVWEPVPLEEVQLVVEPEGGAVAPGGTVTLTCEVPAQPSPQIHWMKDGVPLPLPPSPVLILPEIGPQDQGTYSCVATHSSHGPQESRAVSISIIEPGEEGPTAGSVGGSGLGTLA
Briefly: ELISA AGE2-BSA/sRAGE inhibitory screening. In kind it is binding. How it is done: The in vitro inhibitor screening of AGE2 (glyceraldehyde-modified AGE)-sRAGE interaction (soluble RAGE) was performed using a 96-well AGE-BSA-coated plate (Creative BioMart® ELISA kit, Shirley, NY, USA), according to the manufacturer’s instructions. 100 UA/mL soluble RAGE (sRAGE) was incubated with 100 μM of the tested compounds or 0.05% DMSO as a negative control on an AGE2-BSA-coated plate at room temperature for 60 min, shaking at 300 rpm on an orbital microplate shaker. After incubation, the wells were washed 4 times with wash buffer and horseradish peroxidase (HRP)-labeled anti-RAGE antibody was added and the plate was further incubated at room temperature for 60 min, shaking at 300 rpm on an orbital microplate shaker. After incubation, the wells were washed 4 times with wash buffer and the Substrate Reagent was added to each well. After an incubation at room temperature for 5 min, the HRP-labeled antibody sRAGE-AGE complex was then detected by measuring the absorbance at 450 nm using the microplate reader Varioskan (Thermo Fischer Scientific). These experiments were repeated two times.

≈ marks a conversion by molar mass, not a printed value. Read-outs that look alike come from different tables or passages of the source.

Regarding `C(=C(\C1=NCCN1)n1ccc2ccccc21)/c1ccc2ccccc2c1` [Compound 2i, (Z)-1-[1-(4,5-dihydro-1H-imidazol-2-yl)-2-(naphthalen-2-yl)vinyl]-1H-indole], the MFC in assay [1] (C. albicans ATCC 10231) was 120 µg/mL (≈ 356 µM); in assay [1] (Candida albicans, ATCC10231, C. albicans ATCC 10231, read-out: MFC), 60 µg/mL (≈ 178 µM). Further, the minimum inhibitory concentration (MIC) came out at 120 µg/mL (≈ 356 µM) in assay [1] (C. albicans ATCC 10231) and 60 µg/mL (≈ 178 µM) in assay [1] (Candida albicans, ATCC10231, C. albicans ATCC 10231, read-out: MIC). The molecule also showed an inhibition at 100 µM in assay [2] of 49.4%.
